Results: the NIST ThermoML archive (doi:10.1021/je400408w)

Assay: molar heat capacity at constant pressure; xn = mol fraction of the nth substance listed
Details: 100 kPa, Liquid

Cc1ccccc1Cl [2-chlorotoluene] + CN1CCCC1=O
molar heat capacity at constant pressure [J/K/mol]
Details	293.15 K	298.15 K	303.15 K
x2 = 0	176.43	178.21	180.01
x2 = 0.0766	177.61	179.54	181.65
x2 = 0.1176	178.19	180.12	182.31
x2 = 0.1545	178.64	180.7	182.82
x2 = 0.1932	179.13	181.09	183.22
x2 = 0.2387	179.69	181.63	183.63
x2 = 0.2768	180.04	181.98	183.93
x2 = 0.3121	180.38	182.21	184.15
x2 = 0.3543	180.68	182.53	184.34
x2 = 0.3871	180.8	182.64	184.39
x2 = 0.4267	180.94	182.73	184.44
x2 = 0.4653	180.97	182.78	184.48
x2 = 0.5065	180.95	182.72	184.39
x2 = 0.5412	180.74	182.59	184.2
x2 = 0.5849	180.46	182.25	183.84
x2 = 0.6219	180.05	181.77	183.46
x2 = 0.6618	179.44	181.22	182.89
x2 = 0.7064	178.51	180.31	182.03
x2 = 0.7417	177.61	179.4	181.15
x2 = 0.7817	176.49	178.16	179.97
x2 = 0.8213	175.04	176.75	178.4
x2 = 0.8543	173.73	175.32	176.97
x2 = 0.8886	172.09	173.57	175.14
x2 = 0.9133	170.81	172.18	173.6
x2 = 0.9476	168.91	170.02	171.22

Cc1ccccc1Cl [2-chlorotoluene] + O=C1CCCN1
molar heat capacity at constant pressure [J/K/mol]
Details	293.15 K	298.15 K	303.15 K
x2 = 0	176.43	178.21	180.01
x2 = 0.0426	177.32	179.22	181.34
x2 = 0.0815	178.2	180.1	182.4
x2 = 0.1243	179.12	181.15	183.61
x2 = 0.1654	180	182.08	184.67
x2 = 0.2067	180.7	182.94	185.64
x2 = 0.2432	181.17	183.62	186.37
x2 = 0.2851	181.73	184.27	186.97
x2 = 0.3215	182.2	184.63	187.49
x2 = 0.3645	182.46	184.96	187.88
x2 = 0.4088	182.43	185.2	188.02
x2 = 0.4426	182.43	185.07	187.93
x2 = 0.4854	182.08	184.93	187.72
x2 = 0.5231	181.74	184.55	187.37
x2 = 0.5612	181.22	183.98	186.88
x2 = 0.5987	180.54	183.29	186.2
x2 = 0.6316	179.75	182.48	185.46
x2 = 0.6724	178.85	181.51	184.4
x2 = 0.7143	177.56	180.26	183.11
x2 = 0.7543	176.48	178.86	181.78
x2 = 0.796	175.15	177.45	180.2
x2 = 0.8342	173.85	176.13	178.66
x2 = 0.8724	172.53	174.47	177.02
x2 = 0.9088	171.32	173.04	175.4
x2 = 0.9426	170.19	171.72	173.87

O=C1CCCN1 [2-pyrrolidinone] + Cc1ccc(Cl)cc1
x1 = 1
Details	molar heat capacity at constant pressure [J/K/mol]
293.15 K	168.36
298.15 K	169.55
303.15 K	171.18

O=C1CCCN1 [2-pyrrolidinone] + Cc1cccc(Cl)c1
x1 = 1
Details	molar heat capacity at constant pressure [J/K/mol]
293.15 K	168.36
298.15 K	169.55
303.15 K	171.18

O=C1CCCN1 [2-pyrrolidinone] + Cc1ccccc1Cl
x1 = 1
Details	molar heat capacity at constant pressure [J/K/mol]
293.15 K	168.36
298.15 K	169.55
303.15 K	171.18

Cc1cccc(Cl)c1 [3-chlorotoluene] + CN1CCCC1=O
molar heat capacity at constant pressure [J/K/mol]
Details	293.15 K	298.15 K	303.15 K
x2 = 0	175.21	176.46	177.67
x2 = 0.0566	176.9	178.51	180.44
x2 = 0.0976	178.07	179.91	182.2
x2 = 0.1345	179.19	181.07	183.53
x2 = 0.1724	180.12	182.1	184.76
x2 = 0.2187	181.31	183.26	186.04
x2 = 0.2565	182.12	184.06	186.9
x2 = 0.2934	182.85	184.82	187.61
x2 = 0.3342	183.56	185.46	188.27
x2 = 0.3745	184.2	185.98	188.79
x2 = 0.4187	184.71	186.4	189.2
x2 = 0.4568	184.96	186.73	189.36
x2 = 0.4986	185.09	186.84	189.47
x2 = 0.5386	185.06	186.75	189.31
x2 = 0.5783	184.78	186.58	189.08
x2 = 0.6112	184.42	186.25	188.68
x2 = 0.6542	183.69	185.54	187.92
x2 = 0.6923	182.87	184.66	187.08
x2 = 0.7328	181.83	183.55	185.83
x2 = 0.7786	179.95	181.8	183.95
x2 = 0.8189	178.11	180	182.01
x2 = 0.8324	177.43	179.29	181.17
x2 = 0.8621	175.85	177.56	179.36
x2 = 0.9078	172.92	174.43	175.98
x2 = 0.9427	170.28	171.62	172.92

Cc1cccc(Cl)c1 [3-chlorotoluene] + O=C1CCCN1
molar heat capacity at constant pressure [J/K/mol]
Details	293.15 K	298.15 K	303.15 K
x2 = 0	175.21	176.46	177.67
x2 = 0.0398	175.59	176.89	178.18
x2 = 0.0798	176.05	177.3	178.65
x2 = 0.1089	176.37	177.6	179.06
x2 = 0.1443	176.74	178.08	179.55
x2 = 0.1853	177.1	178.48	179.99
x2 = 0.2234	177.49	178.84	180.42
x2 = 0.2613	177.74	179.25	180.77
x2 = 0.3095	178.12	179.52	181.15
x2 = 0.3452	178.21	179.69	181.37
x2 = 0.3865	178.3	179.9	181.5
x2 = 0.4432	178.35	179.92	181.58
x2 = 0.4836	178.22	179.73	181.43
x2 = 0.5213	177.98	179.53	181.21
x2 = 0.5643	177.56	179.17	180.87
x2 = 0.6074	177.17	178.68	180.45
x2 = 0.6408	176.64	178.24	179.95
x2 = 0.6853	175.94	177.56	179.23
x2 = 0.7214	175.28	176.81	178.55
x2 = 0.7654	174.4	175.89	177.62
x2 = 0.8069	173.44	174.91	176.65
x2 = 0.8453	172.56	173.94	175.71
x2 = 0.8812	171.61	172.99	174.68
x2 = 0.9203	170.57	171.93	173.57
x2 = 0.9564	169.6	170.88	172.55
